Columns and labels:
[1] = tested on: female NOD mice; experiment: IDDM incidence in NOD mice treated at six weeks (Example 6); type: in vivo; details: 100 μg ip in IFA at six weeks, boosted once 10 days later; FIGS. 6 and 7
Experimental: IDDM incidence. At specified times, groups of 10 female NOD mice were injected i.p. with 50 μg antigen or control β-galactosidase in 100 μl of 50% IFA. Another control group received 100 μl of 50% IFA alone. Because there may be a requirement for continual antigen presentation, the mice were reinjected every 6 weeks until 40 weeks of age. Urine glucose levels were monitored weekly for diabetes by Tes-tape (Lilly, Indianapolis, Ind.). After we observed abnormal glucose in the urine, blood glucose levels were monitored twice weekly. A recording of two consecutive blood glucose levels of greater than 13 mmol/l was considered as IDDM onset.
Groups of six weeks old female NOD mice were treated with either the control MSA (MSA 560-574) peptide, or a peptide containing a βCAA target determinant (GADp35, GADp34, HSP 277 or insulin B-chain), or a NTTA peptide #2, 4, 6 or 7 (in each case 100 μg ip in IFA)). The mice were boosted once 10 days later. All mouse groups were injected concurrently and housed in the same SPF room. […] An average of 70% of the mice treated with a βCAA target determinant developed IDDM by 40 weeks in age. Two consecutive blood glucose levels of […] was considered disease onset. N=10 for each group.
An average of 40% of the NOD mice treated with different NTTAs developed IDDM by 40 weeks in age. […]

[2] = tested on: NOD mice; details: intraperitoneally in incomplete Freund's adjuvant early in the NOD mouse disease process (ref 1); cited from earlier work
[3] = tested on: splenic T cells of treated NOD mice; experiment: ELISPOT of Th1/Th2 responses after neonatal autoantigen treatment (Example 8); type: cell-based; details: treated neonatally 100 μg i.p. in IFA, tested at 4 weeks in age; FIG. 10
Experimental: (§1) ELISPOT analysis. At a specified time, mice received a single i.p. injection of 100 μg β-galactosidase or GAD65 or other specified antigen in 50% IFA. Fourteen days later, splenic T-cells were isolated and the frequency of β-galactosidase and GAD65-specific T-cells secreting IL-4, IL-5 and IFN-γ was determined by using the ELISPOT technique as described (Forsthuber, T., et al., Science, 271:1728, 1996), with the exception that the treating antigen and β-galactosidase (100 μg/ml) were used as antigens, and 11B11 together with biotinylated BVD6-24G2 (PharMingen, San Diego, Calif.) was used for capture and detection of IL-4. The resulting spots were counted manually.
The data are represented as the mean number of spot forming colonies per million splenic T cells above background. The variation within, each group was <15%. Experimental and control mice were tested simultaneously (in triplicate) in two separate experiments (n=5/group).

[4] = tested on: diabetic NOD mice with transplanted syngeneic islets; experiment: Transplantation of syngeneic islets into diabetic NOD mice (Example 2); type: in vivo; details: antigen i.p. in IFA to recipient diabetic NOD mice prior to transplantation; FIG. 1
Experimental: Transplantation of islets. Female NOD mice were monitored for the onset of IDDM, after which the mice were maintained on 1.0 to 1.5 units insulin (Humulin U, Lilly) per day. At the time of IDDM onset, mice were injected with either 100 μg of GAD65, hsp277, insulin B-chain or control β-galactosidase i.p. in 50% IFA. Ten days later, the mice were reinjected. Ten days after the second treatment, 3000 freshly isolated islets from newborn NOD mice were transplanted into the space beneath the kidney capsule, and Humulin administration was discontinued. The mice were reinjected every two weeks. Recurrence of diabetes is defined as two consecutive blood glucose levels of greater than 13 mmol/l.
Based on the ability of autoantigen treatment to inhibit disease in pre-diabetic NOD mice with (1) we tested whether this treatment could also protect transplanted syngeneic β cells from the established autoimmune responses in diabetic NOD mice. Islets were transplanted into diabetic NOD mice that had been treated with β-galactosidase. […] The results are shown in FIG. 1, wherein data are presented as time post-transplantation at which hyperglycemia recurred. These findings correlate with the extent to which each autoantigen was able to promote Th2 immunity in newly hyperglycemic animals (see Example 3, below).

[5] = tested on: antigen-specific T cells within islet infiltrates; experiment: ELISPOT of single antigen-specific T cells from pancreatic islet infiltrates (Example 11); type: cell-based, NOD mice
Experimental: as §1
Monocytes were isolated from islets of 10-week old female NOD mice. 1000, 100 or 10 monocytes were mixed with 1 million irradiated splenic T cells and tested for IFNγ and IL-5 responses to B cell autoantigens, as well as control antigens, by ELISPOT.

Insulin B-chain [reference compound]
protection from disease / disease incidence [1]: non-significant trend toward protection | protection from IDDM [2]: highly protective | Th2 and Th1 responses to the injected autoantigen [3]: both Th2 and Th1 responses | syngeneic islet graft survival (recurrence of hyperglycemia) [4]: lacked any protective effect | IFNγ responses, number of T cells ([5]; 100 islet monocytes mixed with 1 million irradiated splenic T cells): 6 | IFNγ responses, number of T cells ([5]; 1,000 islet monocytes mixed with 1 million irradiated splenic T cells, 10-week old female NOD mice): 50

— patent US20050202032A1, “Use of neglected target tissue antigens in modulation of immune responses” (The Regents of the University of California, priority 1998, published 2005)
